The text below walks through data of patent publication US11680056B2, “MK2 inhibitors and uses thereof” (Xinthera, Inc., priority 2021, dated 2023).

One assay concerns the target p38a/PRAK (Homo sapiens (Human), UniProt Q16539). Put plainly: p38a/PRAK biochemical assay: activation of PRAK by p38, FITC-HSP27 peptide phosphorylation (IMAP FP). The following applies: 10-point 1:3 dilution, top dose 300 μM; 60 pM active p38a, 1 nM inactive PRAK, 10 μM ATP, 2 h incubation; read-out: p38a/PRAK Enzyme pIC50 (converted). Put shortly:
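GST-tagged MK2 (F46–H400) and PRAK (M1–Q471), expressed in E. coli, activated by p38 and phosphorylate FITC-HSP27 peptide over 2 h with compound; readout by IMAP fluorescence polarisation (ex 485/em 528 nm). Ten-point 1:3 dilutions, top dose 1 μM for MK2 and 300 μM for PRAK. IC50 after vehicle normalisation; selectivity = IC50(PRAK)/IC50(MK2).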

The target in a further assay is p38a/MK2 (Homo sapiens (Human), UniProt P49137+Q16539). Nature of the assay: p38a/MK2 biochemical assay: activation of MK2 by p38, FITC-HSP27 peptide phosphorylation (IMAP FP). The conditions noted are these: 10-point 1:3 dilution, top dose 1 μM; 60 pM active p38a, 1 nM inactive MK2, 10 μM ATP, 2 h incubation; read-out: p38a/MK2 (1 μM) Enzyme pIC50 (converted).
Sequence of p38a/MK2 (P49137 46-400): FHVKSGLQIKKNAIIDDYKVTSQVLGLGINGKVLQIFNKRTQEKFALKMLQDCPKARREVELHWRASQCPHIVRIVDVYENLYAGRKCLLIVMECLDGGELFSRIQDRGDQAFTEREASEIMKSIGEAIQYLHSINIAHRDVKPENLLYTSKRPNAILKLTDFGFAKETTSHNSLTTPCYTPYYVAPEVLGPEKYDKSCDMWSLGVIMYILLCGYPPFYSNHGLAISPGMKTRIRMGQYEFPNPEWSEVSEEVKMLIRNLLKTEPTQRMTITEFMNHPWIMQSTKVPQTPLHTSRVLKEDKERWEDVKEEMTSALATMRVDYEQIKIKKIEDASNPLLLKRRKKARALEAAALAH
Sequence of p38a/MK2 (Q16539 whole entry): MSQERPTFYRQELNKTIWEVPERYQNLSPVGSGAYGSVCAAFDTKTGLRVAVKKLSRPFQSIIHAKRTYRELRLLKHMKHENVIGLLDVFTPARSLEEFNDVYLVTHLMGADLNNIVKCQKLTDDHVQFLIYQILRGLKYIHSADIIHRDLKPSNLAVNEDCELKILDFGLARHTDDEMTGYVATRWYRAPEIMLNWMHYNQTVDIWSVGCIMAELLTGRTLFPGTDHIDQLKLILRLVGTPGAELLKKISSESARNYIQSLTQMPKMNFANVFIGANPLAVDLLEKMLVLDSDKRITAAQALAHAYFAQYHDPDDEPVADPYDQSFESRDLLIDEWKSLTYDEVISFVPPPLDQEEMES

Sequence of p38a/PRAK (Q16539 whole entry): as above

As for `Cc1cnc(-n2ccc(C(C)(C)O)n2)cc1-n1c(C)cc(OCc2ncc(F)cc2Cl)c(Cl)c1=O` (single isomer, unassigned) [Example 47B, rel-3-chloro-4-[(3-chloro-5-fluoropyridin-2-yl)methoxy]-2′-[3-(2-hydroxypropan-2-yl)pyrazol-1-yl]-5′,6-dimethyl-[1,4′-bipyridin]-2-one], the IC50 is above 316000 nM at p38a/PRAK and above 1000 nM at p38a/MK2.
As to `Cc1cnc(-c2ccnc(CC3(O)CC3)n2)cc1-n1c(C)cc(OCc2ncc(F)cc2F)c(Cl)c1=O` (single isomer, unassigned) [Example 48A, rel-3-chloro-4-[(3,5-difluoropyridin-2-yl)methoxy]-2′-{2-[(1-hydroxycyclopropyl)methyl]pyrimidin-4-yl}-5′,6-dimethyl-[1,4′-bipyridin]-2-one], the IC50 was 2000 nM at p38a/PRAK and 5.01 nM on p38a/MK2.
As for `Cc1cnc(-c2ccnc(CC3(O)CC3)n2)cc1-n1c(C)cc(OCc2ncc(F)cc2F)c(Cl)c1=O` (single isomer, unassigned) [Example 48B, rel-3-chloro-4-[(3,5-difluoropyridin-2-yl)methoxy]-2′-{2-[(1-hydroxycyclopropyl)methyl]pyrimidin-4-yl}-5′,6-dimethyl-[1,4′-bipyridin]-2-one], the values for the IC50 at p38a/PRAK and on p38a/MK2 were above 316000 nM and above 1000 nM, respectively.
`Cc1cnc(-c2ccnc(C(C)(C)O)n2)c(C)c1-n1c(C)cc(OCc2ncc(F)cc2F)c(Cl)c1=O` (single isomer, unassigned) [Example 49A, rel-3-chloro-4-((3,5-difluoropyridin-2-yl)methoxy)-2′-(2-(2-hydroxypropan-2-yl)pyrimidin-4-yl)-3′,5′,6-trimethyl-2H-[1,4′-bipyridin]-2-one]: the values for the IC50 at p38a/PRAK and at p38a/MK2 were 3160 nM and 6.31 nM, respectively.
Taken in the same sequence, the figures for `Cc1cnc(-c2ccnc(C(C)(C)O)n2)c(C)c1-n1c(C)cc(OCc2ncc(F)cc2F)c(Cl)c1=O` (single isomer, unassigned) [Example 49B, rel-3-chloro-4-((3,5-difluoropyridin-2-yl)methoxy)-2′-(2-(2-hydroxypropan-2-yl)pyrimidin-4-yl)-3′,5′,6-trimethyl-2H-[1,4′-bipyridin]-2-one] were above 316000 nM and above 1000 nM.
For `Cc1cnc(-n2ccc(C(C)(C)O)n2)c(C)c1-n1c(C)cc(OCc2ncc(F)cc2F)c(Cl)c1=O` (single isomer, unassigned) [Example 50A, rel-3-chloro-4-[(3,5-difluoropyridin-2-yl)methoxy]-2′-[3-(2-hydroxypropan-2-yl)pyrazol-1-yl]-3′,5′,6-trimethyl-[1,4′-bipyridin]-2-one], the figures for the IC50 on p38a/PRAK and at p38a/MK2 were 10000 nM and 12.6 nM, respectively.
As for `Cc1cnc(-n2ccc(C(C)(C)O)n2)c(C)c1-n1c(C)cc(OCc2ncc(F)cc2F)c(Cl)c1=O` (single isomer, unassigned) [Example 50B, rel-3-chloro-4-[(3,5-difluoropyridin-2-yl)methoxy]-2′-[3-(2-hydroxypropan-2-yl)pyrazol-1-yl]-3′,5′,6-trimethyl-[1,4′-bipyridin]-2-one], the IC50 was above 316000 nM at p38a/PRAK and above 1000 nM at p38a/MK2.
In the case of `Cc1cnc(-c2cncc(C(C)(C)O)n2)cc1-n1c(C)cc(OCc2ncc(F)cc2F)c(Cl)c1=O` (single isomer, unassigned) [Example 51A, rel-3-chloro-4-[(3,5-difluoropyridin-2-yl)methoxy]-2′-[6-(2-hydroxypropan-2-yl)pyrazin-2-yl]-5′,6-dimethyl-[1,4′-bipyridin]-2-one], the IC50 on p38a/PRAK is 5010 nM; on p38a/MK2, 79.4 nM.
On to `Cc1cnc(-c2cncc(C(C)(C)O)n2)cc1-n1c(C)cc(OCc2ncc(F)cc2F)c(Cl)c1=O` (single isomer, unassigned) [Example 51B, rel-3-chloro-4-[(3,5-difluoropyridin-2-yl)methoxy]-2′-[6-(2-hydroxypropan-2-yl)pyrazin-2-yl]-5′,6-dimethyl-[1,4′-bipyridin]-2-one], for which the IC50 at p38a/PRAK was above 316000 nM; on p38a/MK2, above 1000 nM.
Take `Cc1c(-n2c(C)cc(OCc3ncc(F)cc3F)c(Cl)c2=O)ccnc1-n1ccc(C(C)(C)O)n1` (single isomer, unassigned) [Example 52A, rel-3-chloro-4-((3,5-difluoropyridin-2-yl)methoxy)-2′-(3-(2-hydroxypropan-2-yl)-1H-pyrazol-1-yl)-3′,6-dimethyl-2H-[1,4′-bipyridin]-2-one]: the IC50 at p38a/PRAK was above 316000 nM; at p38a/MK2, above 1000 nM.
On to `Cc1c(-n2c(C)cc(OCc3ncc(F)cc3F)c(Cl)c2=O)ccnc1-n1ccc(C(C)(C)O)n1` (single isomer, unassigned) [Example 52B, rel-3-chloro-4-((3,5-difluoropyridin-2-yl)methoxy)-2′-(3-(2-hydroxypropan-2-yl)-1H-pyrazol-1-yl)-3′,6-dimethyl-2H-[1,4′-bipyridin]-2-one], for which the IC50 was 25100 nM on p38a/PRAK and 15.8 nM at p38a/MK2.
With `Cc1cnc(-c2ccnc(C(C)(C)O)n2)c(F)c1-n1c(C)cc(OCc2ncc(F)cc2F)c(Cl)c1=O` (single isomer, unassigned) [Example 53A, rel-3-chloro-4-[(3,5-difluoropyridin-2-yl)methoxy]-3′-fluoro-2′-[2-(2-hydroxypropan-2-yl)pyrimidin-4-yl]-5′,6-dimethyl-[1,4′-bipyridin]-2-one], the IC50 at p38a/PRAK was above 316000 nM; on p38a/MK2 it was above 1000 nM.
In the case of `Cc1cnc(-c2ccnc(C(C)(C)O)n2)c(F)c1-n1c(C)cc(OCc2ncc(F)cc2F)c(Cl)c1=O` (single isomer, unassigned) [Example 53B, rel-3-chloro-4-[(3,5-difluoropyridin-2-yl)methoxy]-3′-fluoro-2′-[2-(2-hydroxypropan-2-yl)pyrimidin-4-yl]-5′,6-dimethyl-[1,4′-bipyridin]-2-one], the IC50 at p38a/PRAK was 794 nM; on p38a/MK2 it was 0.126 nM.
With `Cc1cnc(-n2ccc(C(C)(C)O)n2)c(F)c1-n1c(C)cc(OCc2ncc(F)cc2F)c(Cl)c1=O` (single isomer, unassigned) [Example 54A, rel-3-chloro-4-((3,5-difluoropyridin-2-yl)methoxy)-3′-fluoro-2′-(3-(2-hydroxypropan-2-yl)-1H-pyrazol-1-yl)-5′,6-dimethyl-2H-[1,4′-bipyridin]-2-one], the IC50 at p38a/PRAK is above 316000 nM; on p38a/MK2 it was above 1000 nM.
On the same counts, the results for `Cc1cnc(-n2ccc(C(C)(C)O)n2)c(F)c1-n1c(C)cc(OCc2ncc(F)cc2F)c(Cl)c1=O` (single isomer, unassigned) [Example 54B, rel-3-chloro-4-((3,5-difluoropyridin-2-yl)methoxy)-3′-fluoro-2′-(3-(2-hydroxypropan-2-yl)-1H-pyrazol-1-yl)-5′,6-dimethyl-2H-[1,4′-bipyridin]-2-one] are 1580 nM and 0.631 nM.
On to `[2H]C([2H])(Oc1cc(C)n(-c2c(C)cnc(-c3ccnc(C(C)(C)O)n3)c2F)c(=O)c1Cl)c1ncc(F)cc1F` (single isomer, unassigned) [Example 57A, rel-3-chloro-4-[(3,5-difluoropyridin-2-yl)(2H2)methoxy]-3′-fluoro-2′-[2-(2-hydroxypropan-2-yl)pyrimidin-4-yl]-5′,6-dimethyl-[1,4′-bipyridin]-2-one], for which the results for the IC50 at p38a/PRAK and at p38a/MK2 were 794 nM and 1.26 nM, respectively.
As to `[2H]C([2H])(Oc1cc(C)n(-c2c(C)cnc(-c3ccnc(C(C)(C)O)n3)c2F)c(=O)c1Cl)c1ncc(F)cc1F` (single isomer, unassigned) [Example 57B, rel-3-chloro-4-[(3,5-difluoropyridin-2-yl)(2H2)methoxy]-3′-fluoro-2′-[2-(2-hydroxypropan-2-yl)pyrimidin-4-yl]-5′,6-dimethyl-[1,4′-bipyridin]-2-one], the IC50 on p38a/PRAK is 126000 nM; at p38a/MK2, above 10 nM.
Consider `[2H]C([2H])(Oc1cc(C)n(-c2c(C)cnc(-c3ccnc(C(C)(C)CO)n3)c2F)c(=O)c1Cl)c1ncc(F)cc1F` (single isomer, unassigned) [Example 59A, rel-3-chloro-4-((3,5-difluoropyridin-2-yl)methoxy-d2)-3′-fluoro-2′-(2-(1-hydroxy-2-methylpropan-2-yl)pyrimidin-4-yl)-5′,6-dimethyl-2H-[1,4′-bipyridin]-2-one], for which the IC50 is above 316000 nM on p38a/PRAK and above 1000 nM at p38a/MK2.
`[2H]C([2H])(Oc1cc(C)n(-c2c(C)cnc(-c3ccnc(C(C)(C)CO)n3)c2F)c(=O)c1Cl)c1ncc(F)cc1F` (single isomer, unassigned) [Example 59B, rel-3-chloro-4-((3,5-difluoropyridin-2-yl)methoxy-d2)-3′-fluoro-2′-(2-(1-hydroxy-2-methylpropan-2-yl)pyrimidin-4-yl)-5′,6-dimethyl-2H-[1,4′-bipyridin]-2-one]: the IC50 on p38a/PRAK was 316 nM; at p38a/MK2 it was 1 nM.
As for `[2H]C([2H])(Oc1cc(C)n(-c2c(C)cnc(-c3ccnc(CC4(O)CC4)n3)c2F)c(=O)c1Cl)c1ncc(F)cc1F` (single isomer, unassigned) [Example 61A, rel-3-chloro-4-((3,5-difluoropyridin-2-yl)methoxy-d2)-3′-fluoro-2′-(2-((1-hydroxycyclopropyl)methyl)pyrimidin-4-yl)-5′,6-dimethyl-2H-[1,4′-bipyridin]-2-one], the IC50 was 158000 nM at p38a/PRAK and above 100 nM on p38a/MK2.
